Common to all, as to assay: Bliss interaction score (quartile over a dose matrix) (fitness difference); higher = more antagonism (negative = synergy)
The subject of one assay is S. aureus DSM 20231. In outline:
(§1)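 Fitness was derived from optical density at entry into stationary phase, divided by the robust mean of the no-drug wells on the same plate. That reading was taken as OD595, and the ratio was capped at 1. Single-drug fitness was inferred from the combination data. The Bliss score, observed fitness minus the expected product of single-drug fitness, was summarised as quartiles over technical, biological and donor/recipient replicates.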

The next assay concerns S. aureus Newman. In outline:
as §1

In a further assay the test system is B. subtilis 168. In outline:
as §1

In a further assay the test system is S. pneumoniae D39V. In outline: as §1

Structures are written as SMILES.
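Also: first quartile when negative (synergy) and third quartile when positive (antagonism).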

Regarding `CC1=C(C(=O)O)N2C(=O)[C@@H](NC(=O)[C@H](N)c3ccccc3)[C@H]2SC1` [Cephalexin] + O=C(N[C@H](CO)[C@H](O)c1ccc([N+](=O)[O-])cc1)C(Cl)Cl [Chloramphenicol], the Bliss interaction score was 0.0832 in the assay with S. aureus DSM 20231, 0.0789 with S. aureus Newman, -0.069 in the assay on B. subtilis 168 and 0.113 with S. pneumoniae D39V.
Regarding `Cc1onc(-c2ccccc2)c1C(=O)N[C@@H]1C(=O)N2[C@@H]1SC(C)(C)[C@@H]2C(=O)O` [Oxacillin] + CC1(C)S[C@@H]2[C@H](NC(=O)Cc3ccccc3)C(=O)N2[C@H]1C(=O)O [PenicillinG], the Bliss interaction score with S. aureus DSM 20231 was 0.0796; in the assay with S. aureus Newman, -0.0558; with B. subtilis 168, -0.0214; in the assay on S. pneumoniae D39V, -0.235.
Turning to `O=C(O)[C@H]1/C(=C/CO)O[C@@H]2CC(=O)N21` [Clavulanic] + CC[C@H]1OC(=O)[C@H](C)C(=O)[C@H](C)[C@@H](O[C@@H]2O[C@H](C)C[C@H](N(C)C)[C@H]2O)[C@](C)(OC)C[C@@H](C)C(=O)[C@H](C)[C@H]2N(CCCCn3cnc(-c4cccnc4)c3)C(=O)O[C@]12C [Telithromycin], the Bliss interaction score in the assay with S. aureus DSM 20231 is -0.0742; in the assay on S. aureus Newman, 0.122; with B. subtilis 168, 0.0437; in the assay on S. pneumoniae D39V, -0.0431.
Regarding `Cn1c2cccc(=O)c-2nc2ccccc21` [Pyocyanin] + CC[C@H]1OC(=O)[C@H](C)C(=O)[C@H](C)[C@@H](O[C@@H]2O[C@H](C)C[C@H](N(C)C)[C@H]2O)[C@](C)(OC)C[C@@H](C)C(=O)[C@H](C)[C@H]2N(CCCCn3cnc(-c4cccnc4)c3)C(=O)O[C@]12C [Telithromycin], the Bliss interaction score with S. aureus DSM 20231 was 0.0313; with S. aureus Newman, -0.0591; in the assay with B. subtilis 168 it was -0.0145; in the assay with S. pneumoniae D39V, -0.0564.
On to `CC1=C(C(=O)O)N2C(=O)[C@@H](NC(=O)[C@H](N)c3ccccc3)[C@H]2SC1` [Cephalexin] + CC(C1CCC(C(O1)OC2C(CC(C(C2O)OC3C(C(C(CO3)(C)O)NC)O)N)N)N)NC [Gentamicin], for which the Bliss interaction score was -0.0632 in the assay on S. aureus DSM 20231 (main component drawn), -0.018 with S. aureus Newman (main component drawn), -0.0985 in the assay on B. subtilis 168 (main component drawn) and -0.132 with S. pneumoniae D39V (main component drawn).
As for `O=C(O)[C@H]1/C(=C/CO)O[C@@H]2CC(=O)N21` [Clavulanic] + COc1c(N2C[C@@H]3CCCN[C@@H]3C2)c(F)cc2c(=O)c(C(=O)O)cn(C3CC3)c12 [Moxifloxacin], the Bliss interaction score was -0.0739 with S. aureus DSM 20231, 0.218 in the assay on S. aureus Newman, -0.0241 in the assay on B. subtilis 168 and 0.062 in the assay with S. pneumoniae D39V.
In the case of `O=C(O)[C@H]1/C(=C/CO)O[C@@H]2CC(=O)N21` [Clavulanic] + CCC[C@@H]1C[C@@H](C(=O)N[C@@H]([C@H]2O[C@H](SC)[C@H](O)[C@@H](O)[C@H]2O)[C@H](C)Cl)N(C)C1 [Clindamycin], the Bliss interaction score is -0.148 in the assay with S. aureus DSM 20231, 0.188 with S. aureus Newman, -0.0975 in the assay on B. subtilis 168 and -0.0802 in the assay on S. pneumoniae D39V.
As for `O=C(O)[C@H]1/C(=C/CO)O[C@@H]2CC(=O)N21` [Clavulanic] + CN(C)[C@@H]1C(O)=C(C(N)=O)C(=O)[C@@]2(O)C(O)=C3C(=O)c4c(O)ccc(Cl)c4[C@@](C)(O)[C@H]3C[C@@H]12 [Clortetracycline], the Bliss interaction score is -0.24 in the assay with S. aureus DSM 20231, 0.161 in the assay on S. aureus Newman, 0.0785 with B. subtilis 168 and -0.0427 with S. pneumoniae D39V.
In the same order, the values of `O=C(O)[C@H]1/C(=C/CO)O[C@@H]2CC(=O)N21` [Clavulanic] + CC(=O)O[C@H]1C[C@@]2(C)[C@@H](C[C@@H](O)[C@H]3[C@@]4(C)CC[C@@H](O)[C@@H](C)[C@@H]4CC[C@@]32C)/C1=C(\CCC=C(C)C)C(=O)O [Fusidic acid] are -0.265, 0.209, -0.0604 and -0.0441.
Turning to `O=C(O)[C@H]1/C(=C/CO)O[C@@H]2CC(=O)N21` [Clavulanic] + C[C@H]1c2cccc(O)c2C(=O)C2=C(O)[C@]3(O)C(=O)C(C(N)=O)=C(O)[C@@H](N(C)C)[C@@H]3[C@@H](O)[C@@H]21 [Doxycycline], the Bliss interaction score in the assay on S. aureus DSM 20231 was -0.273; in the assay with S. aureus Newman, 0.268; with B. subtilis 168, 0.0656; in the assay on S. pneumoniae D39V, -0.0431.
In the case of `Oc1cc(Cl)ccc1Oc1ccc(Cl)cc1Cl` [Triclosan] + CC1=C\[C@@H](O)CC(=O)Cc2nc(co2)C(=O)N2CCC=C2C(=O)O[C@H](C(C)C)[C@H](C)/C=C/C(=O)NC\C=C\1 [Virginiamycin M1], the Bliss interaction score in the assay with S. aureus DSM 20231 was 0.108; in the assay on S. aureus Newman, 0.034; with B. subtilis 168, 0.0973; in the assay with S. pneumoniae D39V it was 0.0386.
Take `CC[C@H]1OC(=O)[C@H](C)[C@@H](O[C@H]2C[C@@](C)(OC)[C@@H](O)[C@H](C)O2)[C@H](C)[C@@H](O[C@@H]2O[C@H](C)C[C@H](N(C)C)[C@H]2O)[C@](C)(O)C[C@@H](C)CN(C)[C@H](C)[C@@H](O)[C@]1(C)O` [Azithromycin] + O=C(O)[C@H]1/C(=C/CO)O[C@@H]2CC(=O)N21 [Clavulanic]: the Bliss interaction score with S. aureus DSM 20231 was -0.136; in the assay on S. aureus Newman, 0.239; with B. subtilis 168, 0.115; in the assay with S. pneumoniae D39V, -0.0573.
In the case of `Clc1ccc(COC(Cn2ccnc2)c2ccc(Cl)cc2Cl)c(Cl)c1` (centres undefined) [Miconazole] + Oc1cc(Cl)ccc1Oc1ccc(Cl)cc1Cl [Triclosan], the Bliss interaction score in the assay with S. aureus DSM 20231 worked out at 0.0712; in the assay with S. aureus Newman, 0.0222; in the assay with B. subtilis 168, 0.0625; with S. pneumoniae D39V, 0.0535.
For `O=C(O)[C@H]1/C(=C/CO)O[C@@H]2CC(=O)N21` [Clavulanic] + CC1=C\[C@@H](O)CC(=O)Cc2nc(co2)C(=O)N2CCC=C2C(=O)O[C@H](C(C)C)[C@H](C)/C=C/C(=O)NC\C=C\1 [Virginiamycin M1], in that order: 0.0872, -0.0599, 0.0376 and 0.0495.
With `O=C(O)[C@H]1/C(=C/CO)O[C@@H]2CC(=O)N21` [Clavulanic] + Cc1onc(-c2ccccc2)c1C(=O)N[C@@H]1C(=O)N2[C@@H]1SC(C)(C)[C@@H]2C(=O)O [Oxacillin], the Bliss interaction score in the assay with S. aureus DSM 20231 is 0.0346; in the assay on S. aureus Newman it was 0.0727; in the assay with B. subtilis 168, 0.0555; with S. pneumoniae D39V, -0.051.
In the case of `CC[C@H]1OC(=O)[C@H](C)[C@@H](O[C@H]2C[C@@](C)(OC)[C@@H](O)[C@H](C)O2)[C@H](C)[C@@H](O[C@@H]2O[C@H](C)C[C@H](N(C)C)[C@H]2O)[C@](C)(O)C[C@@H](C)CN(C)[C@H](C)[C@@H](O)[C@]1(C)O` [Azithromycin] + CC[C@H]1OC(=O)[C@H](C)[C@@H](O[C@H]2C[C@@](C)(OC)[C@@H](O)[C@H](C)O2)[C@H](C)[C@@H](O[C@@H]2O[C@H](C)C[C@H](N(C)C)[C@H]2O)[C@](C)(O)C[C@@H](C)C(=O)[C@H](C)[C@@H](O)[C@]1(C)O [Erythromycin], the Bliss interaction score in the assay on S. aureus DSM 20231 was -0.056; in the assay with S. aureus Newman, -0.0668; in the assay on B. subtilis 168, -0.0754; with S. pneumoniae D39V, 0.0539.
